Data: US20250313560A1, “Novel bicyclic benzylamido pyridine derivatives as SOS1 inhibitors” (Boehringer Ingelheim International GmbH, priority 2024, published 2025)
Read-outs that look alike come from different tables or passages of the source.

What was measured:
P450 3A4 = P450 3A4 (Homo sapiens (Human), UniProt P08684); experiment: Cytochrome P450 isoenzyme inhibition assay (P450 3A4, midazolam); assay type: in vitro ADME; conditions: human liver microsomes, Midazolam as substrate; read-out: CYP3A4 inhibition IC50
Experimental: For the following cytochrome P450 isoenzymes, these substrates and metabolic reactions are monitored: P450 3A4: hydroxylation of Midazolam (MDZ).
The final incubation volume contains TRIS buffer (0.1 M), MgCl2 (5 mM), a certain concentration of human liver microsomes dependent on the P450 isoenzyme measured (P450 3A4: 0.1 mg/ml) and a certain concentration of the individual substrate for each isoenzyme (P450 3A4: Midazolam 5 μM).
The effect of the test compound is determined at five different concentrations in duplicate (e.g. highest concentration 50 μM with subsequent serial 1:4 dilutions) or without test compound (high control). Following a short preincubation period, reactions are started with the cofactor (NADPH, 1 mM) and stopped by cooling the incubation down to 8° C. and subsequently by addition of one volume of ACN. An internal standard solution—usually the stable isotope of the formed metabolite—is added after quenching of incubations. Peak area analyte (=metabolite formed) and internal standard is determined by LC-MS/MS. The resulting peak area ratio analyte to internal standard in these incubations is compared to a control activity containing no test compound. Within each of the assay runs, the IC50 of a positive control inhibitor dependent on the P450 isoenzyme measured (P450 3A4: ketoconazole) is determined. The assay results are plotted against compound concentrations to calculated IC50 values (half maximal inhibitory concentrations) for inhibitory compounds utilizing Software IDBS E-WorkBook.
Table 4: Inhibition of P450 isoenzyme 3A^4.

SOS1 and KRAS G12D = SOS1 and KRAS G12D (Homo sapiens (Human), UniProt Q07889); experiment: KRAS::SOS1 AlphaScreen binding assay (KRAS G12D); conditions: average of at least two measurements
Experimental: (§1) Low IC50 values are indicative of high potency of the SOS1 inhibitor compound in this assay setting:
(§2) • GST-tagged SOS1 (564_1049_GST_TEV_ECO) produced in-house • 6xHis-Tev-K-RasG12D/G12C(1-169)Avi produced in-house • GDP (Sigma Cat No G7127) • AlphaLISA Glutathione Acceptor Beads (PerkinElmer, Cat No AL109) • AlphaScreen Streptavidin Donor Beads (PerkinElmer Cat No 6760002) • Assay plates: Proxiplate-384 PLUS, white (PerkinElmer, Cat No 6008289)
(§3) [formula] • KRAS::SOS1 GDP mix: • 7.5 nM (final assay concentration) K-RasG12C, 10 nM (final assay concentration) K-RasG12D, 10 μM (final assay concentration) GDP and 5 nM (final assay concentration) GST-SOS1 are mixed in assay buffer prior to use and kept at rt. Bead mix: • AlphaLISA Glutathione Acceptor Beads and AlphaScreen Streptavidin Donor Beads are mixed in the dark in assay buffer at a concentration of 10 μg/mL (final assay concentration) each prior to use and kept at rt.
(§4) Compounds are diluted to a final start concentration of 100 μM and are tested in duplicate. Assay-ready plates (ARPs) are generated using an Access Labcyte Workstation with a Labcyte Echo 550 or 555 acoustic dispenser. For compound a start concentration of 100 μM, 150 nL of compound solution is transferred per well in 11 concentrations in duplicate with serial 1:5 dilutions.
(§5) The assay is run using a fully automated robotic system in a darkened room below 100 Lux. 10 μL of KRAS::SOS1 GDP mix is added into columns 1-24 to the 150 nL of compound solution (final dilution in the assay 1:100, final DMSO concentration 1%).
(§6) After a 30 minute incubation time, 5 μL of bead mix is added into columns 1-23. Plates are kept at rt in a darkened incubator. After a further 60 minutes incubation, the signal is measured using a PerkinElmer Envision HTS Multilabel Reader using the AlphaScreen specifications from PerkinElmer. Each plate contains the following controls:
(§7) diluted DMSO+KRAS::SOS1 GDP mix+bead mix
(§8) diluted DMSO+KRAS::SOS1 GDP mix
(§9) Result calculation: IC50 values are calculated and analyzed using a 4 parametric logistic model.
(§10) Table 1: Inhibition values for KRAS G12C as well as for KRAS G12D. […] The value indicates an average value of at least two measurements.

CYP3A4 = CYP3A4 (Homo sapiens (Human), UniProt P08684); experiment: Mechanism-based inhibition of CYP3A4 assay (MBI 3A4); assay type: in vitro ADME; conditions: human liver microsomes, midazolam substrate, hydroxy-midazolam formation after 30 min preincubation relative to 0 min; for inhibition at 30 min: human, probe midazolam 15 μM (hydroxy-midazolam formation), read-out: MBI inhibition % ctrl. [%] with MDZ
Experimental: Mechanism-Based Inhibition of CYP3A4 assay (MBI 3A4): The mechanism-based inhibition towards CYP3A4 is assayed in human liver microsomes with midazolam as substrate. The test compounds and water control (wells w/o test compound) are preincubated in presence of NADPH (1 mM) with human liver microsomes (0.2 mg/mL) at a concentration of 0, 5 and 25 μM for 0, 10 and 30 min. After preincubation, the incubate is diluted 1:10 (to 0.02 mg/mL) and the substrate midazolam (15 μM) is added for the main incubation (10 min). The main incubation is quenched with ACN and the formation of hydroxy-midazolam is quantified via LC/MS-MS. The formation of hydroxy-midazolam from the 30 min preincubation relative to the formation from the 0 min preincubation is used as a readout. Values of less than 100% mean that the substrate midazolam is metabolized to a lower extent upon 30 min preincubation compared to 0 min preincubation. In general, low effects upon 30 min preincubation are desired (corresponding to values close to 100%/not different to the values determined with water control).
Table 5: Mechanism-based inhibition of P450 isoenzyme 3A4 with midazolam as substrate.

SOS1 and KRAS G12C = SOS1 and KRAS G12C (Homo sapiens (Human), UniProt Q07889); experiment: KRAS::SOS1 AlphaScreen binding assay (KRAS G12C); conditions: average of at least two measurements
Experimental: as §1, §2, §3, §4, §5, §6, §7, §8, §9, §10

human hepatocytes = experiment: Metabolic stability in human hepatocytes; conditions: 1 μM test compound, 50% human serum, percentage of liver blood flow
[1] = tested on: ERK phosphorylation in NCI-H358 SOS2 KO cells (KRAS G12C); experiment: Erk phosphorylation assay; assay type: cell-based, human; conditions: EGF stimulated, average of at least two measurements, read-out: pERK IC50
Experimental: Low IC50 values are indicative of high potency of the SOS1 inhibitor compounds in this assay setting.
ERK phosphorylation assays are performed using the following human cell line: • NCI-H358 SOS2 KO (Hofmann, Gmachl, Ramharter et al, Cancer Discov. 2021, 11(1):142-15): human lung cancer with a KRAS G12C mutation;
NCI-H358 SOS2 KO are seeded at 50000 cells per well in 60 μL of DMEM with 2% FBS, in Greiner TC 384 plates. The cells are incubated overnight in an incubator at 37° C. and 5% CO2 in a humidified atmosphere. 60 nL compound solution (10 mM DMSO stock solution) is then added using a Beckman Coulter Labcyte Echo 550 device. After 50 min incubation in the aforementioned incubator, 5 nl EGF are added to each well for a final concentration of approx. 8 ng/mL using a Beckman Coulter Labcyte Echo 550 device and cells are incubated for another 10-15 minutes before lysis. The medium is removed, and the cells are lysed by addition of 20 μL of 1.6-fold lysis buffer from the AlphaLISA SureFire Ultra pERK1/2 (Thr202/Tyr204) Assay Kit with added protease inhibitors. After 20 minutes of incubation at rt with shaking, 6 μL of each lysate sample is transferred to a 384-well Proxiplate and analyzed for pERK (Thr202/Tyr204) with the AlphaLISA SureFire Ultra pERK1/2 (Thr202/Tyr204) Assay Kit. 3 μL Acceptor Mix and 3 μL Donor Mix are added under subdued light and incubated for 2 h at rt in the dark, before the signal is measured on a Perkin Elmer Envision plate reader using 384 AlphaScreen settings for Proxiplates. Data are fitted by iterative calculation with variable hill slope. The sigmoidal curve slope is fitted using a default fitting curve to ascertain IC50 values.
Table 2: Erk Phosphorylation assay. The value indicates an average value of at least two measurements.

Chain of SOS1 and KRAS G12C (Q07889 564-1049, stated change not applied): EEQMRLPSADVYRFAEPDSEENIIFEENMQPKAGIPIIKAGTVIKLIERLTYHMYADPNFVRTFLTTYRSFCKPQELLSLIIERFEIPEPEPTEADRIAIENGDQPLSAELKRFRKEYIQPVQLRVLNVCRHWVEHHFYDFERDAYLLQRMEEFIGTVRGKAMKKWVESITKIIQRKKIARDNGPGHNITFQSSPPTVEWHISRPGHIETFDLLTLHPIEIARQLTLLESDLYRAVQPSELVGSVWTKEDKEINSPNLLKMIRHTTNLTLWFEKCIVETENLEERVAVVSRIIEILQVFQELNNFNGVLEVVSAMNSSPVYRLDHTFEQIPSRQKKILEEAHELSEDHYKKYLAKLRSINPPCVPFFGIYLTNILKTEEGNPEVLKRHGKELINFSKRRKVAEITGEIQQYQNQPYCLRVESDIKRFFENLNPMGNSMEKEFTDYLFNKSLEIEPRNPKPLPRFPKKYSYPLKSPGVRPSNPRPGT
Chain of SOS1 and KRAS G12D (Q07889 564-1049, stated change not applied): as above
Chain of P450 3A4 (P08684 whole entry): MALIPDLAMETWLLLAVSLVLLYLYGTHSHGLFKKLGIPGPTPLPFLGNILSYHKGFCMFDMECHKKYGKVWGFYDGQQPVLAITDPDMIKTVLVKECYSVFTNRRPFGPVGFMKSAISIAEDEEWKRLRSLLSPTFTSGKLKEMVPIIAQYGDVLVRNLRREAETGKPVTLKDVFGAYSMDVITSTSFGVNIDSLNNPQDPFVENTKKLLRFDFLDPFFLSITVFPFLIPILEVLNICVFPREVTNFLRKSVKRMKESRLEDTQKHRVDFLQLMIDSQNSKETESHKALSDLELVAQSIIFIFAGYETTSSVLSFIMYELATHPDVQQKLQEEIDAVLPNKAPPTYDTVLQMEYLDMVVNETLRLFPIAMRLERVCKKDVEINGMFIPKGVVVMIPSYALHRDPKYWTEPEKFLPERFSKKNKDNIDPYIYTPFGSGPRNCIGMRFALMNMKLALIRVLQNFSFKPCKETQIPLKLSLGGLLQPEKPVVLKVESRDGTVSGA
Chain of CYP3A4 (P08684 whole entry): as above

Compound | IC50 (P450 3A4) [nM] | IC50 (SOS1 and KRAS G12D) [nM] | inhibition at 30 min (CYP3A4) [%] | IC50 (SOS1 and KRAS G12C) [nM] | Hepatic clearance - QH[%] in human hepatocytes (human hepatocytes) [%] | IC50 ([1]; Homo sapiens, NCI-H358, NCI-H358 SOS2 KO cells) [nM] | MBI inhibition % ctrl. [%] with MDZ (CYP3A4) [%] | IC50 ([1]; NCI-H358 SOS2 KO cells) [nM]
C[C@@H](NC(=O)c1cc(N2CCC(N3CC4CC4(CO)C3)CC2)c2ncnn2c1)c1cccc(C(F)F)c1F (single isomer, unassigned) [Example cis-E21a] | > 50000 | 61 | 102 | 81 | 25 | 216 |  | 
C[C@@H](NC(=O)c1cc(N2CCC(N3CC4CC4(CO)C3)CC2)c2ncnn2c1)c1cccc(C(F)F)c1F (single isomer, unassigned) [Example cis-E21b] | > 50000 | 82 |  | 78 | 38 |  | 96 | 242
C[C@@H](NC(=O)c1cc(N2CCC(NC3COCC3O)CC2)c2ncnn2c1)c1cccc(C(F)(F)F)c1F (single isomer, unassigned) [Example cis-E41b] | > 50000 | 38 | 95 | 41 | 26 |  |  | 367
C[C@@H](NC(=O)c1cc(N2CCC3CCNC3C2)c2ncnn2c1)c1cccc(C(F)(F)F)c1F (single isomer, unassigned) [Example cis-E52b] | > 50000 | 70 | 98 | 71 | 14 |  |  | 40
C[C@@H](NC(=O)c1cc(N2CCC(NC3COCC3O)CC2)c2ncnn2c1)c1cccc(C(F)(F)F)c1F (single isomer, unassigned) [Example trans-E42a] | > 50000 | 26 |  | 26 | 18 |  | 101 | 183
C[C@@H](NC(=O)c1cc(N2CCC(NC3COCC3O)CC2)c2ncnn2c1)c1cccc(C(F)(F)F)c1F (single isomer, unassigned) [Example trans-E42b] | > 50000 | 36 |  | 37 | 16 |  | 94 | 153
C[C@@H](NC(=O)c1cc(N2CCC(NC3CCCC3(C)O)CC2)c2ncnn2c1)c1cccc(C(F)(F)F)c1F (single isomer, unassigned) [Example trans-E53b] | > 50000 | 35 | 91 | 33 | 28 |  |  | 287
C[C@@H](NC(=O)c1cc([C@H]2CC[C@H](N3CCC(F)C(O)C3)CC2)c2ncnn2c1)c1cccc(C(F)F)c1F (single isomer, unassigned) [Example trans-E61b] | > 50000 | 32 |  | 32 | 30 |  | 101 | 138
C[C@@H](NC(=O)c1cc([C@H]2CC[C@H](N3CCC(F)C(O)C3)CC2)c2ncnn2c1)c1cccc(C(F)(F)F)c1F (single isomer, unassigned) [Example trans-E70b] | > 50000 | 42 | 107 | 36 | 19 |  |  | 169
C[C@@H](NC(=O)c1cc([C@H]2CC[C@H](N3CCC(F)C(O)C3)CC2)c2ncnn2c1)c1cccc(C(F)F)c1F (single isomer, unassigned) [trans-E61a] | > 50000 | 41 | 93 | 39 | 40 |  |  | 391
